Test results: ChEMBL document CHEMBL3243971, “Synthesis and beta-adrenoceptor activity of the erythro and threo isomers of substituted alpha-hydroxytrimetoquinol” (J Med Chem, 1978)

What was measured:
[1] = target: T1, Adrenergic receptor beta (Rattus norvegicus) (UniProt P18090+P10608+P26255); settings: Sprague-Dawley
Description: Agonist activity at beta-adrenoceptor in Sprague-Dawley rat adipocytes assessed as lipolysis measured as glycerol release

[2] = target: T1, Adrenergic receptor beta (Rattus norvegicus); settings: Sprague-Dawley, Plasma
Description: Agonist activity at beta-adrenoceptor in Sprague-Dawley rat adipocytes assessed as adenylate cyclase activity in plasmalemma measured as radiolabelled cAMP level after 10 mins by scintillation counting

[3] = species on record: Cavia porcellus; experiment: Intrinsic activity at beta-adrenoceptor in guinea pig atrium assessed as positive chronotropic effect at 10^-10 to 10^-4 M relative to control; assay type: tissue-based; settings: Cardiac atrium
[4] = species on record: Cavia porcellus; experiment: Intrinsic activity at beta-adrenoceptor in guinea pig trachea assessed as tracheal relaxation at 10^-10 to 10^-4 M relative to control; assay type: tissue-based
[5] = species on record: Cavia porcellus; experiment: Agonist activity at beta-adrenoceptor in guinea pig trachea assessed as tracheal relaxation; assay type: tissue-based
[6] = target: T1, Adrenergic receptor beta (Rattus norvegicus); settings: Sprague-Dawley; remark: listed apart in the source
Description: Agonist activity at beta-adrenoceptor in Sprague-Dawley rat fat cells assessed as cAMP accumulation after 10 mins

[7] = species on record: Cavia porcellus; experiment: Agonist activity at beta-adrenoceptor in guinea pig atrium assessed as positive chronotropic effect; assay type: tissue-based; settings: Cardiac atrium

Structure (SMILES): COc1cc([C@@H](O)[C@@H]2NCCc3cc(O)c(O)cc32)cc(OC)c1OC (racemic)
- pD2 [1]: 6.8
- pD2 [2]: 6.2
- Intrinsic activity [3]: 0.78
- Intrinsic activity [4]: 0.76
- pD2 [5]: 6
- pD2 [6]: 6.4
- pD2 [7]: 6.1

Structure (SMILES): COc1cc(C[C@@H]2NCCc3cc(O)c(O)cc32)cc(OC)c1OC (racemic)
- pD2 [1]: 7.3
- pD2 [2]: 8.5
- Intrinsic activity [3]: 0.9
- Intrinsic activity [4]: 0.88
- pD2 [5]: 9
- pD2 [6]: 7.7
- pD2 [7]: 9.1

Structure (SMILES): COc1cc([C@H](O)[C@@H]2NCCc3cc(O)c(O)cc32)cc(OC)c1OC (racemic)
- pD2 [1]: 7
- pD2 [2]: 6.8
- Intrinsic activity [3]: 0.8
- Intrinsic activity [4]: 0.88
- pD2 [5]: 6.8
- pD2 [6]: 6.7
- pD2 [7]: 6.5
